The target in data set [1] is T1, recombinant human ghrelin receptor (HEK293/GRLN) (Homo sapiens, UniProt Q92847).
T1 construct: expressed in transfected cells
Description: Ghrelin inverse agonist potency (EC50) with IP-1 (IP-One HTRF) assay. In kind it is cell-based. Conditions: IP-1 assay. A digest of the protocol:
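IP-1 accumulation was measured by HTRF (IP1-d2/Tb-cryptate, 620/665 nm read after 1 hour at room temperature) following 1 hour of compound treatment at 37° C. Cells were HEK293 stably expressing human ghrelin receptor, plated a day earlier on Matrigel. Inverse agonist potency was reported as EC50.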
On the technique in general: Time-resolved FRET reads energy transfer from a long-lived donor to a nearby acceptor.

Data set [2] is described as follows: Metabolic stability in mouse liver microsomes. It is filed as in vitro ADME. On the procedure: (§1) Metabolic Stability Study
(§2) The metabolic stability of compounds in human, dog, rat and mouse liver microsomes was performed according the experimental conditions reported below:
(§3) • a) Prepare the following 5 stock solutions: • 1. Test compound stock solutions: dilute 10 mM solution of dextromethorphan (Dtr) in DMSO, 10 mM solution of diphenhydramine (DPA) in DMSO, 10 mM solution of omeprazole (Ome) in DMSO, 10 mM solution of verapamil (Ver) in DMSO, and 10 mM of an inverse agonist compound in DMSO to 0.25 mM solution each with acetonitrile/water (70/30). • 2. Buffer: 100 mM potassium phosphate Buffer (PBS) at pH 7.4 • 3. Liver microsomes (20 mg/ml): Thaw in 37° C. water bath quickly • 4. 2000 μL: of NADPH regenerating system (1.3 mM). Place this system on ice before use:
(§4) • 5. […] The test compound concentration in the wells, measured by LC-MS/MS, represents the concentration at time=0. • f) To determine the test compound concentration when t≠0, pre-incubate the NADPH regenerating system and the incubation plate containing the remaining 320 μL of incubation mixture (microsomes protein and test compound) for 5 minutes at 37° C. • g) Start the incubation reaction by adding 80 μL NADPH regenerating system to each well containing the remaining 320 μL incubation mixture. • h) After 10 min., 30 min., and 90 min. of incubation at 37° C., transfer 100 μL of the incubation mixture (microsomes protein, test compound, and NADPH) into the wells of a stop plate pre-filled with 300 μL of the cold quench solution. Shake well. • i) Centrifuge the stop plate at 5000×g for 10 minutes. Collect and dilute the supernatant 3 times with distilled water. Sample and analyze the test compound concentration for all the wells by LC-MS/MS. Animal PK Studies via i.v. (intravenous), p.o. (orally) and s.c. (subcutaneous) administrations
(Liver microsomes are vesicles of endoplasmic reticulum, rich in cytochrome P450 enzymes.)

A short description of data set [3]: Metabolic stability in human liver microsomes. In kind it is in vitro ADME. On the procedure:
as §1, §2, §3, §4

In data set [4] the target is T2, GHSR-1a (HEK293/GHSR1a cell line) (Homo sapiens, UniProt Q92847).
T2 construct: expressed in transfected cells; host or cells: HEK293/GHSR1a cell line
Kind of data set: Ghrelin antagonist potency (IC50) with calcium FLIPR assay, ghrelin 10 nM. In kind it is cell-based. A digest of the protocol:
(§5)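 In this assay, compound alone assesses agonism, while compound co-added with ghrelin at 10 nM assesses antagonism. In both modes the calcium-dye signal is tracked for 2 min from t=20 sec.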

Data set [5] has as its target T2, GHSR-1a (HEK293/GHSR1a cell line). Kind of data set: Ghrelin agonist potency (EC50) with calcium FLIPR assay. In kind it is cell-based. Conditions: ghrelin agonist potency, read-out: Activity EC50/EMax. The gist of the method: as §5
Setting [6] is: inverse agonist potency, read-out: EC50 (Activity).
[7] abbreviates: ghrelin antagonist potency, read-out: IC50 (Activity).
[8] abbreviates: ghrelin inverse agonist potency, read-out: Activity EC50.
[9] abbreviates: ghrelin antagonist potency, read-out: Activity IC50.

Read-outs that look alike come from different tables or passages of the source.

T2 sequence (Q92847 whole entry): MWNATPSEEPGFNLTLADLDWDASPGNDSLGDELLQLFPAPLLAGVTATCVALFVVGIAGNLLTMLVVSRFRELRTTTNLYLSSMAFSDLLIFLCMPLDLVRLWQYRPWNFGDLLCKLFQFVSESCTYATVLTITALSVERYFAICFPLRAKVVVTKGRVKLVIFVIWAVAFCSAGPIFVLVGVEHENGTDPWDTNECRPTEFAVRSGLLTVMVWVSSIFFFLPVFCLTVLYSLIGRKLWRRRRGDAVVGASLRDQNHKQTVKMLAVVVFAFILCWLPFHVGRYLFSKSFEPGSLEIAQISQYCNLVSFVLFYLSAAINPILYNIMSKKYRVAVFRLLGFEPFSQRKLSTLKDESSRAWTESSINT
T1 sequence (Q92847 whole entry): as above

In the case of `C[C@H](NC(=O)Nc1ccc(S(=O)(=O)N(C)c2ccc(CC(C)(C)N)cc2)cc1)c1cccc(Cl)c1Cl.Cl` [H0971, (S)-N-(4-(2-amino-2-methylpropyl)phenyl)-4-(3-(1-(2,3-dichlorophenyl)ethyl)ureido)-N-methylbenzenesulfonamide], the EC50 in data set [1] (setting [6]) was 135 nM. In addition, the “Metabolic Stability Study M = mouse” value in data set [2] was 24.8 µL/min/mg. Besides, the “Metabolic Stability Study H = human” value in data set [3] amounted to 31.9 µL/min/mg. Besides, the IC50 in data set [4] (setting [7]) was found to be 417 nM.
For the compound `CN(C)C(C)(C)Cc1ccc(NS(=O)(=O)c2ccc(NC(=O)NCc3ccccc3)cc2)cc1` [H1009, 4-(3-benzylureido)-N-(4-(2-(dimethylamino)-2-methylpropyl)phenyl) benzenesulfonamide], in data set [1] (setting [6]), the EC50 was 32.8 nM. Moreover, in data set [2], the “Metabolic Stability Study M = mouse” value came out at 33.8 µL/min/mg. Moreover, the “Metabolic Stability Study H = human” value in data set [3] was 13.2 µL/min/mg. The IC50 in data set [4] (setting [7]) turned out to be 252 nM.
The matching figures for `CCN1CCc2cc(NS(=O)(=O)c3ccc(NC(=O)N[C@@H](C)c4ccc(OC)c(Cl)c4Cl)cc3)ccc2C1` [H1018, (S)-4-(3-(1-(2,3-dichloro-4-methoxyphenyl)ethyl)ureido)-N-(2-ethyl-1,2,3,4-tetrahydroisoquinolin-6-yl)benzenesulfonamide]: 13.7 nM, 46.3 µL/min/mg, below 10 µL/min/mg and 99.8 nM.
As to `C[C@H](NC(=O)Nc1ccc(S(=O)(=O)Cc2ccc3c(c2)CNC3)cc1)c1cccc(Cl)c1Cl.Cl` [H1056, (S)-1-(1-(2,3-dichlorophenyl)ethyl)-3-(4-((isoindolin-5-ylmethyl)sulfonyl)phenyl)urea], the EC50 in data set [1] (setting [6]) amounted to 2.6 nM. In addition, the “Metabolic Stability Study M = mouse” value in data set [2] is 13.5 µL/min/mg. Besides, the “Metabolic Stability Study H = human” value in data set [3] is 16.4 µL/min/mg. For the same compound, the IC50 in data set [4] (setting [7]) came out at 5.8 nM.
`O=C(NCc1ccccc1)Nc1ccc2c(c1)CC(c1ccc3c(c1)CNC3)S2(=O)=O` (stereo not drawn) [H1271, 1-benzyl-3-(2-(isoindolin-5-yl)-1,1-dioxido-2,3-dihydrobenzo[b]thiophen-5-yl)urea]: in data set [2], the “Metabolic Stability Study M = mouse” value is “H < 10 M < 10 R = not reported D = not reported μL/min/mg”. Further, in data set [3], the “Metabolic Stability Study H = human” value is “H < 10 M < 10 R = not reported D = not reported μL/min/mg”. For the same compound, the IC50 in data set [4] (HEK293/GHSR1a, ghrelin 10 nM, read-out: Activity IC50 (ghrelin antagonist potency)) stood at 5 nM.
Consider `CC(c1ccccc1F)N(O)C(=O)Nc1ccc(S(=O)(=O)Cc2ccc3c(c2)CNC3)cc1.Cl` (stereo not drawn) [H1490, 1-(1-(2-fluorophenyl)ethyl)-1-hydroxy-3-(4-((isoindolin-5-ylmethyl)sulfonyl)phenyl)urea], for which the EC50 in data set [1] (setting [8]) was 3.6 nM; in data set [5], above 30000 nM. For the same compound, the “Metabolic Stability Study H = human” value in data set [3] was “H = 12.8 μL/min/mg”. Also, in data set [4] (setting [9]), the half-maximal inhibitory concentration (IC50) was 5.43 nM.
For the compound `CC(c1ccccc1F)N(O)C(=O)Nc1ccc(S(=O)(=O)Cc2ccc3c(c2)CN(C)C3)cc1` (stereo not drawn) [H1491, 1-(1-(2-fluorophenyl)ethyl)-1-hydroxy-3-(4-(((2-methylisoindolin-5-yl)methyl)sulfonyl)phenyl)urea], the EC50 in data set [1] (setting [8]) was 4.6 nM; in data set [5], above 30000 nM. In data set [3], the “Metabolic Stability Study H = human” value is “H = 79.5 μL/min/mg”. Besides, the half-maximal inhibitory concentration (IC50) in data set [4] (setting [9]) was 29.7 nM.
As for `CC(NC(=O)Nc1ccc(S(=O)(=O)Cc2ccc3c(c2)CNC3)c(F)c1)c1ccccc1.Cl` (stereo not drawn) [H1492, 1-(3-fluoro-4-((isoindolin-5-ylmethyl)sulfonyl)phenyl)-3-(1-phenylethyl)urea], the results for the EC50 in data set [1] (setting [8]) and in data set [5] were 5.1 nM and above 30000 nM, respectively. Further, the “Metabolic Stability Study H = human” value in data set [3] is given as “H = 24.4 μL/min/mg”. In data set [4] (setting [9]), the IC50 was found to be 36.3 nM.
On to `Cc1cc(NC(=O)NC(C)c2ccccc2)ccc1S(=O)(=O)Cc1ccc2c(c1)CNC2` (stereo not drawn) [H1493, 1-(4-((isoindolin-5-ylmethyl)sulfonyl)-3-methylphenyl)-3-(1-phenylethyl)urea], for which the values for the EC50 in data set [1] (setting [8]) and in data set [5] were 4.2 nM and above 30000 nM, respectively. Moreover, the “Metabolic Stability Study H = human” value in data set [3] is on record as “H = 21.5 μL/min/mg”. Further, the IC50 in data set [4] (setting [9]) was found to be 15.3 nM.
As for `CC(NC(=O)Nc1ccc(S(=O)(=O)Cc2ccc3c(c2)CNC3)c(Cl)c1)c1ccccc1` (stereo not drawn) [H1494, 1-(3-chloro-4-((isoindolin-5-ylmethyl)sulfonyl)phenyl)-3-(1-phenylethyl)urea], the EC50 in data set [1] (setting [8]) was 4 nM; in data set [5], above 30000 nM. Besides, in data set [3], the “Metabolic Stability Study H = human” value is given as “H = 19.1 μL/min/mg”. In data set [4] (setting [9]), the IC50 worked out at 10.6 nM.
The matching figures for `COc1cc(S(=O)(=O)Cc2ccc3c(c2)CNC3)ccc1NC(=O)N(O)C(C)c1cccc(Cl)c1Cl` (stereo not drawn) [H1495, 1-(1-(2,3-dichlorophenyl)ethyl)-1-hydroxy-3-(4-((isoindolin-5-ylmethyl)sulfonyl)-2-methoxyphenyl)urea]: 1.2 nM, above 30000 nM, “H = 21.1 μL/min/mg” and 2.16 nM.
Take `COc1cc(S(=O)(=O)Cc2ccc3c(c2)CN(C)C3)ccc1NC(=O)N(O)C(C)c1cccc(Cl)c1Cl` (stereo not drawn) [H1496, 1-(1-(2,3-dichlorophenyl)ethyl)-1-hydroxy-3-(2-methoxy-4-(((2-methylisoindolin-5-yl)methyl)sulfonyl)phenyl)urea]: the EC50 was 2.5 nM in data set [1] (setting [8]) and above 30000 nM in data set [5]. Besides, in data set [3], the “Metabolic Stability Study H = human” value was “H = 178.3 μL/min/mg”. For the same compound, the 50% inhibitory concentration (IC50) in data set [4] (setting [9]) turned out to be 5.91 nM.
The matching figures for `CNC(=O)c1cc(S(=O)(=O)Cc2ccc3c(c2)CNC3)ccc1NC(=O)NC(C)c1ccccc1` (stereo not drawn) [H1499, 5-((isoindolin-5-ylmethyl)sulfonyl)-N-methyl-2-(3-(1-phenylethyl)ureido)benzamide]: 7.1 nM, above 30000 nM, “H = 27.1 μL/min/mg” and 38 nM.
In the case of `CC(NC(=O)Nc1ccc(S(=O)(=O)Cc2ccc3c(c2)CNC3)cc1-c1ncco1)c1ccccc1` (stereo not drawn) [H1500, 1-(4-((isoindolin-5-ylmethyl)sulfonyl)-2-(oxazol-2-yl)phenyl)-3-(1-phenylethyl)urea], the EC50 was 6.2 nM in data set [1] (setting [8]) and above 30000 nM in data set [5]. The “Metabolic Stability Study H = human” value in data set [3] is on record as “H = 61.4 μL/min/mg”. In addition, the IC50 in data set [4] (setting [9]) was found to be 16.4 nM.
For `CC(NC(=O)Nc1ccc(S(=O)(=O)Cc2ccc3c(c2)CN(C)C3)cc1-c1ncco1)c1ccccc1` (stereo not drawn) [H1501, 1-(4-(((2-methylisoindolin-5-yl)methyl)sulfonyl)-2-(oxazol-2-yl)phenyl)-3-(1-phenylethyl)urea], in that order: 18.1 nM, above 30000 nM, “H = 319.6 μL/min/mg” and 119 nM.
The matching figures for `CC(NC(=O)Nc1ccc(S(=O)(=O)Cc2ccc3c(c2)CNC3)c(Br)c1)c1ccccc1` (stereo not drawn) [H1504, 1-(3-bromo-4-((isoindolin-5-ylmethyl)sulfonyl)phenyl)-3-(1-phenylethyl)urea]: 5.55 nM, above 30000 nM, “H = 19.3 μL/min/mg” and 6.47 nM.

One may read the IC50 as the concentration at which inhibition is half-maximal.

Values taken from patent US10501479B2, “Benzenesulfonyl-asymmetric ureas and medical uses thereof” (HELSINN HEALTHCARE SA, priority 2016, dated 2019).
